Measured values published in PubChem BioAssay (NCI).
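Growth conditions: 96-well plates. Treatment: test compound, 48 hours, 5 concentrations. Analysis: linear interpolation between bracketing concentrations; unreached endpoints set to highest concentration. TGI: total growth inhibition.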

Columns and labels:
Test in all cases: inhibition of tumour cell growth, NCI panel, 48 h
[1] = test system: 786-0 renal
[2] = test system: A498 renal
[3] = test system: A549 NSCLC
[4] = test system: ACHN renal
[5] = test system: BT-549 breast
[6] = test system: CAKI-1 renal
[7] = test system: CCRF-CEM leukemia
[8] = test system: COLO 205 colon
[9] = test system: DU-145 prostate
[10] = test system: EKVX NSCLC
[11] = test system: HCC-2998 colon
[12] = test system: HCT-116 colon
[13] = test system: HCT-15 colon
[14] = test system: HOP-62 NSCLC
[15] = test system: HOP-92 NSCLC
[16] = test system: HT29 colon
[17] = test system: IGROV1 ovarian
[18] = test system: K-562 leukemia
[19] = test system: KM12 colon
[20] = test system: LOX IMVI melanoma
[21] = test system: M14 melanoma
[22] = test system: MCF7 breast
[23] = test system: MDA-MB-231 breast
[24] = test system: MDA-MB-435
[25] = test system: MDA-N
[26] = test system: MOLT-4 leukemia
[27] = test system: NCI-H226 lung
[28] = test system: NCI-H23 lung
[29] = test system: NCI-H460 lung
[30] = test system: NCI/ADR-RES ovarian
[31] = test system: OVCAR-3 ovarian
[32] = test system: OVCAR-4 ovarian
[33] = test system: OVCAR-5 ovarian
[34] = test system: OVCAR-8 ovarian
[35] = test system: PC-3 prostate
[36] = test system: RPMI-8226 leukemia
[37] = test system: RXF 393 renal
[38] = test system: SF-295 CNS
[39] = test system: SF-539 CNS
[40] = test system: SK-MEL-2 melanoma
[41] = test system: SK-MEL-28 melanoma
[42] = test system: SK-MEL-5 melanoma
[43] = test system: SN12C renal
[44] = test system: SNB-19 CNS
[45] = test system: SNB-75 CNS
[46] = test system: SR leukemia
[47] = test system: SW-620 colon
[48] = test system: T-47D breast
[49] = test system: U251 CNS
[50] = test system: UACC-257 melanoma
[51] = test system: UACC-62 melanoma
[52] = test system: UO-31 renal
[53] = test system: HL-60(TB) leukemia
[54] = test system: HS 578T breast
[55] = test system: MALME-3M melanoma
[56] = test system: NCI-H522 lung
[57] = test system: SF-268 CNS
[58] = test system: SK-OV-3 ovarian
[59] = test system: TK-10 renal

Measured: TGI

CC(C)c1cc(=O)[nH]c2cc(N)ccc12
> 100 µM: [1] | [2] | [3] | [4] | [5] | [6] | [7] | [8] | [9] | [10] | [11] | [12] | [13] | [14] | [15] | [16] | [17] | [18] | [19] | [20] | [21] | [22] | [23] | [24] | [25] | [26] | [27] | [28] | [29] | [30] | [31] | [32] | [33] | [34] | [35] | [36] | [37] | [38] | [39] | [40] | [41] | [42] | [43] | [44] | [45] | [46] | [47] | [48] | [49] | [50] | [51] | [52]

CC1OC(OC2C(O)CC(OC3C(O)CC(OC4CCC5(C)C(CCC6C5CCC5(C)C(C7=CC(=O)OC7)C(O)CC65O)C4)OC3C)OC2C)CC(O)C1O (stereo not drawn)
0.816 µM: [55]
0.532 µM: [29]
0.157 µM: [56]
1.59 µM: [35]
5.86 µM: [41]
1.11 µM: [25]
0.787 µM: [59]
1.52 µM: [36]
1.23 µM: [53]
2.66 µM: [14]
1.58 µM: [13]
1.85 µM: [15]
0.576 µM: [12]
> 100 µM: [7] | [54] | [18] | [46]
0.235 µM: [20]
0.968 µM: [30]
0.0706 µM: [3]
14.6 µM: [11]
0.809 µM: [38]
0.533 µM: [42]
1.15 µM: [52]
5.62 µM: [33]
0.844 µM: [8]
0.908 µM: [2]
2.07 µM: [50]
0.497 µM: [31]
0.299 µM: [37]
0.813 µM: [34]
0.217 µM: [39]
4.72 µM: [48]
2.14 µM: [27]
0.63 µM: [10]
3.49 µM: [44]
1.18 µM: [51]
1.31 µM: [58] | [49]
0.607 µM: [57]
1.99 µM: [21]
9.81 µM: [17]
0.886 µM: [16]
1.55 µM: [40]
0.313 µM: [28]
0.396 µM: [6]
0.236 µM: [9]
0.339 µM: [5]
5.37 µM: [45]
0.473 µM: [4]
1.27 µM: [24]

O=S(=O)(c1ccccc1)N1CCCC(c2ccccc2)CC1 (stereo not drawn)
42 µM: [16]
49.8 µM: [36]
> 100 µM: [1] | [2] | [3] | [4] | [5] | [6] | [7] | [8] | [9] | [12] | [13] | [15] | [17] | [18] | [19] | [21] | [55] | [23] | [24] | [25] | [27] | [28] | [29] | [56] | [30] | [31] | [32] | [33] | [34] | [35] | [37] | [57] | [38] | [39] | [40] | [41] | [43] | [44] | [46] | [47] | [48] | [59] | [49] | [50] | [51] | [52]
94.6 µM: [45]
28.9 µM: [42]
61.3 µM: [11]
29.9 µM: [53]
69.1 µM: [26]
53.7 µM: [22]

O=C(/C=C/c1ccc(-c2ccccc2)cc1)NCc1ccc(C(=O)NCCc2ccccc2)cc1
38.1 µM: [39]
39.1 µM: [7]
94.9 µM: [37]
> 100 µM: [1] | [2] | [3] | [4] | [5] | [6] | [8] | [9] | [10] | [11] | [12] | [13] | [14] | [15] | [16] | [17] | [18] | [19] | [20] | [21] | [55] | [22] | [23] | [24] | [25] | [26] | [27] | [28] | [29] | [56] | [30] | [31] | [32] | [33] | [34] | [35] | [36] | [57] | [38] | [40] | [41] | [42] | [58] | [43] | [44] | [45] | [46] | [47] | [48] | [59] | [49] | [50] | [51] | [52]

CC(C)(C)OC(=O)Cn1ncn(NC(=O)Cc2ccccc2)c1=S
> 10 µM: [1] | [2] | [3] | [4] | [5] | [6] | [7] | [8] | [9] | [10] | [11] | [12] | [13] | [14] | [15] | [54] | [16] | [17] | [18] | [19] | [20] | [21] | [55] | [22] | [23] | [24] | [25] | [26] | [28] | [29] | [56] | [30] | [31] | [32] | [33] | [34] | [35] | [57] | [38] | [39] | [41] | [42] | [58] | [43] | [44] | [45] | [46] | [47] | [48] | [59] | [49] | [50] | [51] | [52]

C[N+](C)(CCNc1ccc(NCC[N+](C)(C)Cc2ccc([N+](=O)[O-])cc2)c2c1C(=O)c1c(O)ccc(O)c1C2=O)Cc1ccc([N+](=O)[O-])cc1
14.5 µM: [19]
> 50 µM: [1] | [2] | [3] | [4] | [5] | [6] | [7] | [8] | [9] | [10] | [11] | [12] | [13] | [53] | [14] | [54] | [16] | [17] | [20] | [21] | [55] | [23] | [24] | [25] | [28] | [29] | [56] | [30] | [31] | [32] | [33] | [34] | [35] | [36] | [37] | [57] | [38] | [39] | [40] | [41] | [42] | [58] | [43] | [45] | [47] | [48] | [59] | [49] | [50] | [51] | [52]
> 5 µM: [18] | [26]

CC(C)(C)N/N=C(/Cc1nc2c3c(ccc2[nH]c1=O)C(=O)c1ccccc1C3=O)C(=O)NC1=C(Cl)C(=O)c2ccccc2C1=O
98.6 µM: [34]
28.3 µM: [25]
8.83 µM: [19]
20.3 µM: [13]
30 µM: [16]
89.5 µM: [8]
> 100 µM: [1] | [2] | [3] | [4] | [5] | [6] | [7] | [9] | [10] | [11] | [12] | [53] | [15] | [17] | [18] | [20] | [21] | [22] | [24] | [26] | [28] | [56] | [31] | [33] | [35] | [36] | [37] | [38] | [39] | [40] | [41] | [58] | [43] | [44] | [46] | [47] | [48] | [49] | [50] | [51] | [52]
43.5 µM: [57]
61.6 µM: [32]
37.8 µM: [55]
27 µM: [42]
9.03 µM: [45]
31.3 µM: [29]
45.1 µM: [30]
79.8 µM: [54]
88.8 µM: [27]
